Values of other authors, collected in US20040063806A1, “Antimicrobial polyalphaolefin composition” (priority 2000, published 2004).
Where two headings read alike, the source gives them in different places.

Key:
[1] = tested on: Enterococcus arabinosus; settings: Enterococcus arabinosus ATCC 8014, medium MACA
[2] = tested on: Candida parapsylosis; settings: origin A, medium SMA
[3] = tested on: Sarcina urea; settings: Sarcina urea ATCC 6473, medium BHI-A
[4] = tested on: Corynebacterium diphtherias; settings: Corynebacterium diphtherias NCTC 3984, medium BHI-A
[5] = tested on: Clostridium difficile; settings: Clostridium difficile ATCC 9684, medium BHI-A
[6] = tested on: Lactobacillus delbrueckii; settings: Lactobacillus delbrueckii ATCC 7830, medium MACA
[7] = tested on: Actinomyces israelii; settings: Actinomyces israelii NCTC 8047, medium NA
[8] = tested on: Klebsiella aerogenes; settings: Klebsiella aerogenes NCTC 8172, medium NA
[9] = tested on: Candida tropicalis
[10] = tested on: Trichophyton cutaneum; settings: origin A, medium SMA
[11] = tested on: Shigella flexneri
[12] = tested on: Vibrio eltor; settings: Vibrio eltor NCTC 8457, medium NA
[13] = tested on: Epidermophyton floccosum; settings: Epidermophyton floccosum ATCC 10227, medium SMA
[14] = tested on: Vibrio cholerae; settings: origin A, medium NA
[15] = tested on: Corynebacterium xerosis; settings: Corynebacterium xerosis ATCC 373, medium M-H
[16] = tested on: Bacillus cereus; settings: origin A, medium NA
[17] = tested on: Citrobacter freundii; settings: origin A, medium NA
[18] = tested on: Bacillus subtilis; settings: Bacillus subtilis NCTC 8236, medium NA
[19] = tested on: Clostridium tetani; settings: Clostridium tetani NCTC 9571, medium EA
[20] = tested on: Enterococcus faecalis
[21] = tested on: Keratinomyces ajelloi; settings: origin A, medium SMA
[22] = tested on: Streptococcus heamolyticus A; settings: origin A, medium BHI-A
[23] = tested on: Staphylococcus albus; settings: Staphylococcus albus NCTC 7292, medium NA
[24] = tested on: Trochophyton tonsurans; settings: origin A, medium SMA
[25] = tested on: Corynebacterium minutissimum; settings: Corynebacterium minutissimum ATCC 23348, medium BHI-A
[26] = tested on: Staphylococcus lactis; settings: Staphylococcus lactis NCTC 8340, medium NA
[27] = tested on: Klebsiella pneumoniae
[28] = tested on: Salmonella typhimurium; settings: Salmonella typhimurium NCTC 5710, medium NA
[29] = tested on: Streptococcus agalactiae; settings: Streptococcus agalactiae NCTC 8181, medium BHI-A
[30] = tested on: Shigella sonnei; settings: Shigella sonnei NCTC 7240, medium NA
[31] = tested on: Mycobacterium tuberculosis; settings: origin A, medium YA
[32] = tested on: Nocardia asteroides; settings: Nocardia asteroides NCTC 6761, medium BHI-A
[33] = tested on: Pasteurella septica; settings: Pasteurella septica NCTC 948, medium NA
[34] = tested on: Corynebacterium acnes; settings: Corynebacterium acnes* ATCC 6919, medium BHI-A
[35] = tested on: Loefferella mallei; settings: Loefferella mallei NCTC 9674, medium NA
[36] = tested on: Salmonella paratyphi B
[37] = tested on: Enterobacter aerogenes; settings: Enterobacter aerogenes ATCC 13048, medium M-H
[38] = tested on: Brucella intermedia; settings: origin A, medium BR.A.A.
[39] = tested on: Sarcina lutee; settings: Sarcina lutee NCTC 196, medium BHI-A
[40] = tested on: Pasteurella pseudotuberculosis; settings: origin C-G, medium NA
[41] = tested on: Clostridium perfringens; settings: Clostridium perfringens NCTC 3110, medium EA

For `Oc1cc(Cl)ccc1Oc1ccc(Cl)cc1Cl` [IRGAGUARD B 1000, 2,4,4′-trichloro-2′-hydroxydiphenyl ether], the Microbiostatic effect [1] is listed as 33.0 ppm, the Microbiostatic effect [2] is listed as 30 ppm and the Microbiostatic effect [3] is listed as 0.1 ppm. The Microbiostatic effect [4] was 3.0 ppm, the Microbiostatic effect [5] was 5.0 ppm and the Microbiostatic effect [6] was 33.0 ppm. For the same compound, the Microbiostatic effect [7] was 1.0 ppm, the Microbiostatic effect [8] was 0.3 ppm and the Microbiostatic effect ([9]; Candida tropicalis DSM 1346, medium M-H) was 10 ppm. The Microbiostatic effect ([9]; Candida tropicalis, origin A, medium SMA) was 10 ppm, the Microbiostatic effect [10] was 10 ppm and the Microbiostatic effect ([11]; Shigella flexneri NCTC 8192, medium NA) was 0.3 ppm. For the same compound, the Microbiostatic effect ([11]; Shigella flexneri NCTC 8204, medium NA) was 0.1 ppm, the Microbiostatic effect [12] was 10.0 ppm and the Microbiostatic effect [13] was 1-10 ppm. The Microbiostatic effect [14] was 10.0 ppm, the Microbiostatic effect [15] was 5.0 ppm and the Microbiostatic effect [16] was 3.0 ppm. For the same compound, the Microbiostatic effect [17] was 3.0 ppm, the Microbiostatic effect [18] was 0.1 ppm and the Microbiostatic effect [19] was 3.0 ppm. For the same compound, the Microbiostatic effect ([20]; Enterococcus faecalis ATCC 6055, medium M-H) was 5.0 ppm, the Microbiostatic effect ([20]; Enterococcus faecalis ATCC 29212, medium M-H) was 4.0 ppm and the Microbiostatic effect ([20]; Enterococcus faecalis NCTC 12201, medium M-H, Varicomycin resistant) was 5.0 ppm. For the same compound, the Microbiostatic effect ([20]; Enterococcus faecalis NCTC 12203, medium M-H, Varicomycin resistant) was 5.0 ppm, the Microbiostatic effect [21] was 10 ppm and the Microbiostatic effect [22] was 3.0 ppm. The Microbiostatic effect [23] was 0.1 ppm, the Microbiostatic effect [24] was 10 ppm and the Microbiostatic effect [25] was 3.0 ppm. The Microbiostatic effect [26] was 3.0 ppm, the Microbiostatic effect ([27]; Klebsiella pneumoniae ATCC 4352, medium NA) was 0.3 ppm and the Microbiostatic effect ([27]; Klebsiella pneumoniae ATCC 10031, medium M-H) was 0.125 ppm. The Microbiostatic effect [28] was 0.3 ppm, the Microbiostatic effect [29] was 3.0 ppm and the Microbiostatic effect [30] was 0.1 ppm. For the same compound, the Microbiostatic effect [31] was 100.0 ppm, the Microbiostatic effect [32] was 3.0 ppm and the Microbiostatic effect [33] was 0.1 ppm. The Microbiostatic effect [34] was 3.0 ppm, the Microbiostatic effect [35] was 0.3 ppm and the Microbiostatic effect ([36]; Salmonella paratyphi B NCTC 3176, medium NA) was 0.3 ppm. The Microbiostatic effect ([36]; Salmonella paratyphi B NCTC 5704, medium NA) was 0.1 ppm, the Microbiostatic effect [37] was 0.5 ppm and the Microbiostatic effect [38] was 0.1 ppm. For the same compound, the Microbiostatic effect [39] was 3.0 ppm, the Microbiostatic effect [40] was 10.0 ppm and the Microbiostatic effect [41] was 10.0 ppm.
